According to patent US20090298752A1, “APLIDINE TREATMENT OF CANCERS” (PHARMA MAR, S.A., priority 1999, published 2009):
Entries after “also recorded” stand apart in the source; their conditions may differ.

Tests used:
[1] = system: human bladder cancer; assay: human bladder cancer animal models; assay type: in vivo; conditions: complete remissions in some animal models
From the text: Bladder tumours are one type of tumour over-expressing the receptor to Epithelial Growth Factor (EGF), which leads to upregulation of VEGF and the VEGF receptor. Binding of VEGF to its receptor is believed to lead to cell growth stimulation by means of transitory local calcium ion changes among other mechanisms for signalling. A compound inhibiting VEGF action is expected to be inhibitory to such tumours.

[2] = stability testing of aplidine and lyophilised dosage form; assay type: physicochemical; conditions: solubilised; heat and light stress testing
Experimental: In a currently preferred embodiment freeze-drying was performed from a 500 mg/mL solution of aplidine in 40% (v/v) tert-butanol in Water for Injection (WfI) containing 25 mg/mL D-mannitol as bulking agent.

[3] = system: B-RAF; assay: cDNA expression array in MOLT-4 cells; assay type: cell-based, human; conditions: for quantitative change in B-RAF expression: MOLT-4, 1 h treatment
Experimental: (§1) The early changes in gene expression induced by aplidine in MOLT-4 cells were evaluated by using cDNA expression arrays (Atlas Human Cancer, Clontech). MOLT-4 cells were treated for 1 hour with concentrations of aplidine which inhibit the growth by 50% and total RNA was isolated at 0, 1, 6 and 24 hours after drug wash out. Filters were hybridised with equal amount of 32P labelled cDNA. Analysis of the results was carried out using ATLAS IMAGE 1.0 software. Changes in gene expression greater than 2 fold were taken as significant changes in RNA expression and subsequently confirmed by PCR.
as §1, with “In the present study we have evaluated the early” for “The early”, “cells” for “cells were evaluated”, “of aplidien” for “of aplidine”, “isolated t” for “isolated at”, “equal amounts” for “equal amount”, “PCR. […] Whether the down-regulation of flt-1 is involved in the cytotoxic and antitumour effect of aplidine is under investigation at the moment.” for “PCR.”
(§2) The human leukaemia cell line MOLT-4 was used for these experiments MOLT-4 cells were treated for 1 hour with 20 nM of aplidine. Total RNA was extracted at the end of treatment and 6 and 24 hours after recovery in drug-free medium.
(§3) 5 μg of total RNA were retrotanscribed to cDNA in the presence of ^32P dATP. Equal amounts of radioactive probes were hybridised to Atlas Human Cancer Microarrays (Clontech). After washing, filter were exposed and the results analysed using the Atlas Image software. Only a gene expression difference greater than 2 fold between treated and untreated cells were taken into account. RT-PCR and northern analysis have been performed to confirm the changes in gene expression found with the microarrays.

[4] = system: DNA-PK; assay: cDNA expression array in MOLT-4 cells; assay type: cell-based, human; conditions: MOLT-4, 1 h treatment
Experimental: as §1
as §1, with “In the present study we have evaluated the early” for “The early”, “cells” for “cells were evaluated”, “of aplidien” for “of aplidine”, “isolated t” for “isolated at”, “equal amounts” for “equal amount”, “PCR. […] Whether the down-regulation of flt-1 is involved in the cytotoxic and antitumour effect of aplidine is under investigation at the moment.” for “PCR.”
as §2, §3

[5] = system: ETR; assay: cDNA expression array in MOLT-4 cells; assay type: cell-based, human
Experimental: as §1
as §1, with “In the present study we have evaluated the early” for “The early”, “cells” for “cells were evaluated”, “of aplidien” for “of aplidine”, “isolated t” for “isolated at”, “equal amounts” for “equal amount”, “PCR. […] Whether the down-regulation of flt-1 is involved in the cytotoxic and antitumour effect of aplidine is under investigation at the moment.” for “PCR.”
as §2, §3

[6] = system: FMS; assay: cDNA expression array in MOLT-4 cells; assay type: cell-based, human; conditions: for quantitative change in FMS expression: MOLT-4, 1 h treatment
Experimental: as §1
as §1, with “In the present study we have evaluated the early” for “The early”, “cells” for “cells were evaluated”, “of aplidien” for “of aplidine”, “isolated t” for “isolated at”, “equal amounts” for “equal amount”, “PCR. […] Whether the down-regulation of flt-1 is involved in the cytotoxic and antitumour effect of aplidine is under investigation at the moment.” for “PCR.”
as §2, §3

[7] = system: PLK-1; assay: cDNA expression array in MOLT-4 cells; assay type: cell-based, human; conditions: MOLT-4, 1 h treatment
Experimental: as §1
as §1, with “In the present study we have evaluated the early” for “The early”, “cells” for “cells were evaluated”, “of aplidien” for “of aplidine”, “isolated t” for “isolated at”, “equal amounts” for “equal amount”, “PCR. […] Whether the down-regulation of flt-1 is involved in the cytotoxic and antitumour effect of aplidine is under investigation at the moment.” for “PCR.”
as §2, §3

[8] = system: MOLT-4 cells; assay: activity of aplidine on MOLT-4 cells with VEGF added; assay type: cell-based, human; conditions: VEGF 10 ng/ml, 10% FCS, low concentrations of aplidine
[9] = system: advanced solid tumours; assay: Phase I, 24 h infusion weekly x3 q4wk: antitumour activity; assay type: in vivo, human
Experimental: In this study 16 patients were treated. patients characteristics: median age 55 years, median PS 1, male/female 11/5, tumour types being as follows: Head and neck 5, kidney 2, colon 3, rectum 2, sarcoma 1 and melanoma 3, all pre-treated with chemotherapy (median 2 lines).
Aplidine was administered as a 24 h infusion at the following dose levels (Dls): 133 (3 pts), 266 (3 pts), 532 (3 pts), 1000 (3 pts), 2000 (3 pts) and 3000 (1 pt) mcg/m^2/wk×3 every 28 days.
To date, 25 pts (median age 58 yrs, median ECOG 1) with advanced, previously treated solid tumours or lymphoma have been treated in this phase I study. Using a schedule of APL 24 h weekly×3 followed by 1 wk rest, the following dose levels have been tested: 133 (n-3 pts), 266 (3), 532 (3), 1000 (3), 2000 (3), 4500 (3) and 3750 μg/m^2/wk (3). With 60 cycles (180 infusions) administered, all pts are evaluable for toxicity. The Maximum Tolerated Dose was 4500 μg/m^2/wk×3 with grade (G) 3 muscular toxicity (biopsy proven type II muscular atrophy). G4 CPK and G3 transaminitis the dose-limiting toxicities in 2 or 4 pts. […] All pts have been sampled for PK analysis by LC/MS/MS. […] As expected, neuromuscular toxicity is dose-limiting. The possible recommended dose of 3750 μg/m^2/wk×3 is being assessed.
A phase I trial was performed using 24 hour infusion weekly×3 followed by 1 wk rest. 32 patients (median age 58 yrs, median ECOG 1) with advanced, previously treated solid tumours have been treated. They have received 64 courses (median/pt: 2 (1-6)) across 8 dose levels: 133 (3 pts), 266 (3 pts), 532 (3 pts), 1000 (3 pts), 2000 (3 pts), 3000 (3 pts), 4500 (4 pts) and 3750 mcg/m^2/wk (10 pts). 2 out of 3 evaluable patients had DLT at 4500 mcg/m^2/wk: grade (G) 4 reversible neuromuscular toxicity (biopsy prevent type II muscular atrophy) and G4 CK increase (1 pt), and transient G3 transaminitis (1 pt). Other toxicities included G 1-2 malaise (most patients treated at ≧3000 mcg/m^2/wk), muscle cramps, G 1-2 emesis (responsive to antiemetics) and injection site reaction (very common and concentration-dependent). All patients have been sampled for PK analysis by a LC/MS/MS method. Pharmacokinetics are linear and the profiles fit a 2 compartment open model. […] Maintained plasma levels >1 ng/ml (active in vitro) were obtained at doses ≧3000 mcg/m^2. […] Four additional patients had minor responses or stable disease for >4 months. […] The recommended dose for future trials, 3750 mcg/m^2/wk×3, administered through a central vein catheter, is feasible and associated with mild toxicity.

[10] = system: prostate tumour; conditions: 1.25 mg/kg; cited from earlier work
[11] = MOLT-4, 6 hours after recovery in drug-free medium

What does the source list for aplidine?
activity on human bladder cancer [1]: exceedingly high activity; degradation [2]: substantial degradation; quantitative change in B-RAF expression ([3]; 6 Hours): +2.0 fold; quantitative change in B-RAF expression ([3]; 24 Hours): +2.6 fold; levels of B-RAF, in words [3, 11]: increase; quantitative change in DNA-PK expression ([4]; 6 Hours): +3.0 fold; quantitative change in DNA-PK expression ([4]; 24 Hours): +3.8 fold; ETR levels, in words ([5]; MOLT-4, 20 nM 1 h, after 6 and 24 hours): returned to normal level; expression of early response gene ETR, in words ([5]; MOLT-4, 20 nM 1 h, at the end of treatment): increased; quantitative change in ETR expression ([5]; MOLT-4, 1 h treatment, 1 Hour): +2.7 fold; quantitative change in FMS expression ([6]; 6 Hours): +2.7 fold; quantitative change in FMS expression ([6]; 24 Hours): +2.1 fold; levels of Fms, in words [6, 11]: increase; quantitative change in PLK-1 expression ([7]; 6 Hours): +3.0 fold; quantitative change in PLK-1 expression ([7]; 24 Hours): +4.4 fold; effect of added VEGF on activity of aplidine [8]: slightly reduced the activity of low concentrations of aplidine; also recorded: partially abolish the activity of aplidine; clinical response, pre-treated advanced melanoma ([9]; DL 532 mcg/m^2/w, 1 patient): clinical improvement; response, Patient #034, thyroid medullary carcinoma ([9]; decrease in CEA marker): Clinical improvement and SD at lung lymphangitis; duration of minor responses or stable disease ([9]; four additional patients): > 4 months; response, Patient #008, non measurable metastatic melanoma ([9]; highly pre-treated): clinical improvement and tumour shrinkage; tumour shrinkage, Patient #032, renal carcinoma ([9]; in vivo): 20%; duration of clinical improvement, advanced melanoma resistant to DTIC/interferon ([9]; one patient): > 30 weeks; T/C [10]: 25%
